Consider nine molecules from patent US20240158446A1, “CYCLIC COMPOUND HAVING SELECTIVE INHIBITORY ACTION ON KRAS OVER HRAS AND NRAS” (CHUGAI SEIYAKU KABUSHIKI KAISHA, priority 2021, published 2024).

Assay [1] has as its target GDP-bound KRAS wild-type protein (Homo sapiens, UniProt P01116). Kind of assay: Binding to KRAS by surface plasmon resonance (SPR), Single Cycle Kinetics. Conditions: GDP-bound KRAS wild-type protein, read-out: KRAS KD.
Assay [2] addresses GDP-bound NRAS wild-type protein (Homo sapiens, UniProt P01111). Description: Binding to NRAS by surface plasmon resonance (SPR), Single Cycle Kinetics. Conditions: for NRAS/KRAS (ratio of KD value with respect to NRAS to KD value with respect to KRAS) / NRAS/KRAS (ratio of KD value for NRAS to KD value for KRAS): SPR, GDP-bound NRAS wild-type protein vs GDP-bound KRAS wild-type protein.

Assay [3] concerns the target GDP-bound HRAS wild-type protein (Homo sapiens, UniProt P01112). Description: Binding to HRAS by surface plasmon resonance (SPR), Single Cycle Kinetics. Conditions: for HRAS/KRAS (ratio of KD value with respect to HRAS to KD value with respect to KRAS) / HRAS/KRAS (ratio of KD value for HRAS to KD value for KRAS): SPR, GDP-bound HRAS wild-type protein vs GDP-bound KRAS wild-type protein. (In general: Surface plasmon resonance follows binding to a sensor surface in real time, without labels.)

The mark [4] stands for this setting: SPR Single Cycle Kinetics, 1:1 binding model.

Like-named read-outs stand apart in the source and are kept apart here. *1 amine or outer side, *2 acyl side, *3 side chain or, on linkers, in order; H or OH if unused. Where a SMILES comes first, the peptide text is derived from it. Bridges are numbered along the chain shown (N, C = ends). [ ]: non-standard residue; d: D form. The star is where a group is joined. hPhe(3,5-F2-4-CF3) = N[C@@H](CCc1cc(F)c(C(F)(F)F)c(F)c1)C(=O)O; hPhe(3-Cl-4-CF3) = N[C@@H](CCc1ccc(C(F)(F)F)c(Cl)c1)C(=O)O; NPrPhe(4-CF3) = CCCN[C@@H](Cc1ccc(C(F)(F)F)cc1)C(=O)O; X13 = O=C([C@@H](N[*:1])C1CC(F)(F)C1)[*:2]; NMeGly(cPent) = CN[C@H](C(=O)O)C1CCCC1; Pro(4,4-F2) = O=C(O)[C@@H]1CC(F)(F)CN1; NMeD = CN[C@@H](CC(=O)O)C(=O)O; NMeL = CN[C@@H](CC(C)C)C(=O)O; Morpholide = C1CN(*)CCO1; Ac5c = NC1(C(=O)O)CCCC1; Aze = O=C(O)[C@@H]1CCN1; Ac4c = NC1(C(=O)O)CCC1; NEtG = CCNCC(=O)O; Sar = CNCC(=O)O

GDP-bound HRAS wild-type protein, sequence (P01112 whole entry): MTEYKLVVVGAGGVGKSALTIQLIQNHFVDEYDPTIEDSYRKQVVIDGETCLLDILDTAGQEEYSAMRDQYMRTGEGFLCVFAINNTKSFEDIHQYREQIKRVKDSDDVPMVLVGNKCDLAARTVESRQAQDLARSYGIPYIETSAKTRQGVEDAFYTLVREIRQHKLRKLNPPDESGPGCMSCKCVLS
GDP-bound NRAS wild-type protein, sequence (P01111 whole entry): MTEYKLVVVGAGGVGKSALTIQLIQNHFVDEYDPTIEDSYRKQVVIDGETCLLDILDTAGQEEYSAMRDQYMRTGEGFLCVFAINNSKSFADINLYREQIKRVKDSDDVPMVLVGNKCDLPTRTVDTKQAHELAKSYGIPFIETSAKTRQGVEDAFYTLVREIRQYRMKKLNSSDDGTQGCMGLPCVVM
GDP-bound KRAS wild-type protein, sequence (P01116 whole entry): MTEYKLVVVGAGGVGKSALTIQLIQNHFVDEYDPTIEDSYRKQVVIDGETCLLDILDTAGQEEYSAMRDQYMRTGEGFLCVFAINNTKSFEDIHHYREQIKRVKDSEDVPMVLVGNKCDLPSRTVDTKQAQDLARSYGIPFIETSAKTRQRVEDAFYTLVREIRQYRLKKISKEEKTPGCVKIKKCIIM

Consider `CCCN1C(=O)[C@@H]2CCN2C(=O)CN(C)C(=O)[C@H](C2CC(F)(F)C2)NC(=O)[C@H](CC(C)C)N(C)C(=O)C[C@@H](C(=O)N2CCOCC2)N(C)C(=O)[C@H](C2CCCC2)N(C)C(=O)C2(CCCC2)NC(=O)[C@@H]2CCCN2C(=O)[C@H](CCc2cc(F)c(C(F)(F)F)c(F)c2)NC(=O)CN(C)C(=O)[C@@H]1Cc1ccc(C(F)(F)F)cc1` [PP0787] ([NMeL][X13][Sar][Aze][NPrPhe(4-CF3)][Sar][hPhe(3,5-F2-4-CF3)]P[Ac5c][NMeGly(cPent)][NMeD]-Morpholide; lactam N-11), for which the dissociation constant Kd in assay [1] (setting [4]) was 0.34 nM. In addition, the “NRAS/KRAS (ratio of KD value with respect to NRAS to KD value with respect to KRAS)” value in assay [2] is “C (A compound having a KD ratio of 0.1 or more and less than 3 is denoted as C)”. For the same molecule, in assay [3], the “HRAS/KRAS (ratio of KD value with respect to HRAS to KD value with respect to KRAS)” value is “B (a compound having 3 or more and less than 10 is denoted as B)”.

For `CCCN1C(=O)[C@@H]2CCN2C(=O)CN(C)C(=O)[C@H]([C@@H](C)CC)NC(=O)[C@H](CC(C)C)N(C)C(=O)C[C@@H](C(=O)N2CCOCC2)N(C)C(=O)[C@H](C2CCCC2)N(C)C(=O)C2(CCCC2)NC(=O)[C@@H]2CCCN2C(=O)[C@H](CCc2ccc(C(F)(F)F)c(Cl)c2)NC(=O)CN(C)C(=O)[C@@H]1Cc1ccc(C(F)(F)F)cc1` [PP0156] ([NMeL]I[Sar][Aze][NPrPhe(4-CF3)][Sar][hPhe(3-Cl-4-CF3)]P[Ac5c][NMeGly(cPent)][NMeD]-Morpholide; lactam N-11), in assay [1] (setting [4]), the equilibrium dissociation constant (Kd) turned out to be 0.12 nM. Moreover, the “NRAS/KRAS (ratio of KD value for NRAS to KD value for KRAS)” value in assay [2] was “C (A compound having a KD ratio of 0.1 or more and less than 3 is denoted as C)”. In assay [3], the “HRAS/KRAS (ratio of KD value for HRAS to KD value for KRAS)” value was “B (a compound having 3 or more and less than 10 is denoted as B)”.

Regarding `CC[C@H](C)[C@@H]1NC(=O)[C@H](CC(C)C)N(C)C(=O)C[C@@H](C(=O)N(C)C)N(C)C(=O)[C@H](C2CCCC2)N(C)C(=O)C2(CCCC2)NC(=O)[C@@H]2CCCN2C(=O)[C@H](CCc2cc(F)c(C(F)(F)F)c(F)c2)NC(=O)CN(C)C(=O)[C@H](Cc2ccc(C(F)(F)F)cc2)N2CCCC[C@@H](C2=O)N(C)C(=O)CN(C)C1=O` [PP0569], the Kd in assay [1] (setting [4]) is 0.034 nM. Further, the “NRAS/KRAS (ratio of KD value with respect to NRAS to KD value with respect to KRAS)” value in assay [2] is “C (A compound having a KD ratio of 0.1 or more and less than 3 is denoted as C)”. The “HRAS/KRAS (ratio of KD value with respect to HRAS to KD value with respect to KRAS)” value in assay [3] was “B (a compound having 3 or more and less than 10 is denoted as B)”.

Regarding `CCO[C@@H]1C[C@H]2C(=O)NC3(CCC3)C(=O)N(C)[C@@H](C3CCCC3)C(=O)N(C)[C@H](C(=O)N(C)CC)CC(=O)N(C)[C@@H](CC3CCC3)C(=O)N[C@@H]([C@@H](C)CC)C(=O)N(C)CC(=O)N(C)[C@H]3C/C=C\CCN(C3=O)[C@@H](Cc3ccc(C(F)(F)F)cc3)C(=O)N(C)CC(=O)N[C@@H](CCc3ccc(C(F)(F)F)c(Cl)c3)C(=O)N2C1` [PP2826], in assay [1] (setting [4]), the equilibrium dissociation constant (Kd) is 0.14 nM. Moreover, the “NRAS/KRAS (ratio of KD value with respect to GDP-bound NRAS wild-type protein to KD value with respect to KRAS)” value in assay [2] (SPR KD ratio NRAS/KRAS, class symbols) is “A (a compound having 10 or more and less than 20 is denoted as A)”. Further, the “HRAS/KRAS (ratio of KD value with respect to GDP-bound HRAS wild-type protein to KD value with respect to KRAS)” value in assay [3] (SPR KD ratio HRAS/KRAS, class symbols) is “A (a compound having 10 or more and less than 20 is denoted as A)”.

Regarding `CCCN1C(=O)CN(C)C(=O)CN(C)C(=O)[C@H]([C@@H](C)CC)NC(=O)[C@H](CC(C)C)N(C)C(=O)C[C@@H](C(=O)N2CCOCC2)N(C)C(=O)[C@H](C2CCCC2)N(C)C(=O)C2(CCC2)NC(=O)[C@@H]2CC(F)(F)CN2C(=O)[C@H](CCc2ccc(C(F)(F)F)c(Cl)c2)NC(=O)CN(C)C(=O)[C@@H]1Cc1ccc(C(F)(F)F)cc1` [PP0207] ([NMeL]I[Sar][Sar][NPrPhe(4-CF3)][Sar][hPhe(3-Cl-4-CF3)][Pro(4,4-F2)][Ac4c][NMeGly(cPent)][NMeD]-Morpholide; lactam N-11), in assay [1] (setting [4]), the Kd was 0.066 nM. Also, the “NRAS/KRAS (ratio of KD value for NRAS to KD value for KRAS)” value in assay [2] is “B (a compound having 3 or more and less than 10 is denoted as B)”. In assay [3], the “HRAS/KRAS (ratio of KD value for HRAS to KD value for KRAS)” value was “C (A compound having a KD ratio of 0.1 or more and less than 3 is denoted as C)”.

Take `CCCN1C(=O)CN(C)C(=O)CN(CC)C(=O)[C@H]([C@@H](C)CC)NC(=O)[C@H](CC(C)C)N(C)C(=O)C[C@@H](C(=O)N(C)C)N(C)C(=O)[C@H](C2CCCC2)N(C)C(=O)C2(CCC2)NC(=O)[C@@H]2CCCN2C(=O)[C@H](CCc2ccc(C(F)(F)F)c(Cl)c2)NC(=O)CN(C)C(=O)[C@@H]1Cc1ccc(C(F)(F)F)cc1` [PP0424] ([NMeL]I[NEtG][Sar][NPrPhe(4-CF3)][Sar][hPhe(3-Cl-4-CF3)]P[Ac4c][NMeGly(cPent)][NMeD]-NMe2; lactam N-11): the Kd in assay [1] (setting [4]) worked out at 0.17 nM. The “NRAS/KRAS (ratio of KD value with respect to NRAS to KD value with respect to KRAS)” value in assay [2] is “B (a compound having 3 or more and less than 10 is denoted as B)”. In addition, the “HRAS/KRAS (ratio of KD value with respect to HRAS to KD value with respect to KRAS)” value in assay [3] was “C (A compound having a KD ratio of 0.1 or more and less than 3 is denoted as C)”.

Turning to `CCO[C@@H]1C[C@H]2C(=O)NC3(CCC3)C(=O)N(C)[C@@H](C3CCCC3)C(=O)N[C@H](C(=O)N(C)C)CC(=O)N(C)[C@@H](CC)C(=O)N[C@@H]([C@@H](C)CC)C(=O)N(C)CC(=O)N(C)[C@H]3C/C=C\CCN(C3=O)[C@@H](Cc3ccc(C(F)(F)F)cc3)C(=O)N(C)CC(=O)N[C@@H](CCc3cc(F)c(C(F)(F)F)c(F)c3)C(=O)N2C1` [PP1094], the Kd in assay [1] (SPR, Single Cycle Kinetics) worked out at 0.84 nM. For the same molecule, the “NRAS/KRAS (ratio of KD value for NRAS to KD value for KRAS)” value in assay [2] was “A (a compound having 10 or more and less than 20 is denoted as A)”. The “HRAS/KRAS (ratio of KD value for HRAS to KD value for KRAS)” value in assay [3] is “B (a compound having 3 or more and less than 10 is denoted as B)”.

In the case of `CC[C@H](C)[C@@H]1NC(=O)[C@H](COC)N(C)C(=O)C[C@@H](C(=O)N2CCOCC2)N(C)C(=O)[C@H](C2CCCC2)N(C)C(=O)C2(CCCC2)NC(=O)[C@@H]2C[C@H](O)CN2C(=O)[C@H](CCc2cc(F)c(C(F)(F)F)c(F)c2)NC(=O)CN(C)C(=O)[C@H](Cc2ccc(C(F)(F)F)cc2)N2CCCCC[C@@H](C2=O)N(C)C(=O)CN(C)C1=O` [PP0847], in assay [1] (SPR, Single Cycle Kinetics), the Kd was 0.28 nM. Further, the “NRAS/KRAS (ratio of KD value for NRAS to KD value for KRAS)” value in assay [2] was “B (a compound having 3 or more and less than 10 is denoted as B)”. Also, the “HRAS/KRAS (ratio of KD value for HRAS to KD value for KRAS)” value in assay [3] is “B (a compound having 3 or more and less than 10 is denoted as B)”.

On to `CCCN1C(=O)[C@@H]2CCN2C(=O)CN(C)C(=O)[C@H]([C@@H](C)CC)NC(=O)[C@H](CC(C)C)N(C)C(=O)C[C@@H](C(=O)N2CCOCC2)N(C)C(=O)[C@H](C2CCCC2)N(C)C(=O)C2(CCCC2)NC(=O)[C@@H]2CCCN2C(=O)[C@H](CCc2cc(F)c(C(F)(F)F)c(F)c2)NC(=O)CN(C)C(=O)[C@@H]1Cc1ccc(C(F)(F)F)cc1` [PP0789] ([NMeL]I[Sar][Aze][NPrPhe(4-CF3)][Sar][hPhe(3,5-F2-4-CF3)]P[Ac5c][NMeGly(cPent)][NMeD]-Morpholide; lactam N-11), for which the Kd in assay [1] (setting [4]) amounted to 0.12 nM. In assay [2], the “NRAS/KRAS (ratio of KD value with respect to NRAS to KD value with respect to KRAS)” value is “C (A compound having a KD ratio of 0.1 or more and less than 3 is denoted as C)”. Further, in assay [3], the “HRAS/KRAS (ratio of KD value with respect to HRAS to KD value with respect to KRAS)” value is “B (a compound having 3 or more and less than 10 is denoted as B)”.

Broadly, the Kd is the free concentration of one partner at which half of the binding sites on the other are occupied at equilibrium, for simple one-to-one binding.
